The results in this text go back to PubChem BioAssay AID330 (DTP/NCI, 2004).

In the assay the test system is P388 leukemia ip, CD2F1 mice, survival T/C. Description: NCI In Vivo Anticancer Drug Screen. Data for tumor model P388 Leukemia (intraperitoneal) in CD2F1 (CDF1) mice. The conditions noted are these: endpoint: median survival time, higher = longer survival. The gist of the method:
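Mice carrying the transplanted tumor received test compound or vehicle. Survival was recorded in each group, and the value is the treated-group measurement divided by that of the vehicle-treated control group.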

The mark [1] stands for this setting: dose: 50.0 mg/kg/injection, schedule: Q01DX009 (ip), vehicle: suspension in saline.
The mark [2] stands for this setting: dose: 100.0 mg/kg/injection, schedule: Q01DX009 (ip), vehicle: suspension in saline.
Setting [3] is: dose: 200.0 mg/kg/injection, schedule: Q01DX009 (ip), vehicle: suspension in saline.
The mark [4] stands for this setting: dose: 50.0 mg/kg/injection, schedule: Q01DX009 (ip), vehicle: saline with Tween-80.
Setting [5] is: dose: 100.0 mg/kg/injection, schedule: Q01DX009 (ip), vehicle: saline with Tween-80.
Where [6] appears, read: dose: 200.0 mg/kg/injection, schedule: Q01DX009 (ip), vehicle: saline with Tween-80.
Where [7] appears, read: dose: 6.25 mg/kg/injection, schedule: Q01DX009 (ip), vehicle: saline with Tween-80.
Setting [8] is: dose: 12.5 mg/kg/injection, schedule: Q01DX009 (ip), vehicle: saline with Tween-80.
[9] abbreviates: dose: 50.0 mg/kg/injection, schedule: Q01DX005 (ip), vehicle: saline with Tween-80.
Where [10] appears, read: dose: 100.0 mg/kg/injection, schedule: Q01DX005 (ip), vehicle: saline with Tween-80.
[11] abbreviates: dose: 50.0 mg/kg/injection, schedule: Q01DX005 (ip), vehicle: Klucel (hydroxypropylcellulose) (HPC).
Where [12] appears, read: dose: 100.0 mg/kg/injection, schedule: Q01DX005 (ip), vehicle: Klucel (hydroxypropylcellulose) (HPC).
The mark [13] stands for this setting: dose: 200.0 mg/kg/injection, schedule: Q01DX005 (ip), vehicle: Klucel (hydroxypropylcellulose) (HPC).
The mark [14] stands for this setting: dose: 200.0 mg/kg/injection, schedule: Q01DX005 (ip), vehicle: saline with Tween-80.
Where [15] appears, read: dose: 60.0 mg/kg/injection, schedule: Q01DX005 (ip), vehicle: saline with Tween-80.
[16] abbreviates: dose: 120.0 mg/kg/injection, schedule: Q01DX005 (ip), vehicle: saline with Tween-80.
The mark [17] stands for this setting: dose: 100.0 mg/kg/injection, schedule: Q04DX003 (ip), vehicle: saline.

Inconclusive results and toxic doses are left out. Peptide text beside a SMILES is read from it.

As to `COc1ccc(CSC(=S)Nc2ccc(SC)c(Cl)c2)cc1`, the T/C runs as follows: under setting [1], 100 % of control; under setting [2], 108 % of control; under setting [3], 98 % of control.

Regarding `CC1CC(=O)Nc2ncccc2N1` (stereo not drawn), the T/C runs as follows: under setting [4], 94 % of control; under setting [5], 94 % of control; under setting [6], 94 % of control.

As to `COc1cc(C(=O)N/N=C/c2cccc3ccccc23)ccc1O`, the T/C reads like this: under setting [4], 86 % of control; under setting [5], 90 % of control; under setting [6], 90 % of control.

Consider `CC(=O)NC(/C=C/c1ccc(Cl)c(Cl)c1)c1cccc(O)c(=O)c1` (stereo not drawn), for which the T/C under setting [7] was 100 % of control; the T/C under setting [8] was 99 % of control; the T/C (dose: 25.0 mg/kg/injection, schedule: Q01DX009 (ip), vehicle: saline with Tween-80) was 113 % of control; the T/C (dose: 25.0 mg/kg/injection, schedule: Q01DX009 (ip), vehicle: saline) is 119 % of control; the T/C (dose: 50.0 mg/kg/injection, schedule: Q01DX009 (ip), vehicle: saline) was 124 % of control; the T/C (dose: 100.0 mg/kg/injection, schedule: Q01DX009 (ip), vehicle: saline) was 98 % of control.

`N/C=C1\Cc2ccccc2C1=O`: the T/C was 95 % of control under setting [1], 98 % of control under setting [2] and 104 % of control under setting [3].

As for `CC(NC(=O)C(Cc1ccccc1)NC(=O)C(N)CCCN=C(N)N)C(=O)O` (stereo not drawn) (H-Arg-Phe-Ala-OH; configuration not given here), the T/C is 102 % of control (dose: 50.0 mg/kg/injection, schedule: Q01DX005 (ip), vehicle: saline); 101 % of control (dose: 100.0 mg/kg/injection, schedule: Q01DX005 (ip), vehicle: saline); 101 % of control (dose: 200.0 mg/kg/injection, schedule: Q01DX005 (ip), vehicle: saline).

Regarding `CCn1c(Cl)c(/C=N\Nc2ccc([N+](=O)[O-])cc2)c2ccccc21`, the T/C is, setting by setting: (dose: 100.0 mg/kg/injection, schedule: Q01DX001 (ip), vehicle: saline) 94 % of control; (dose: 200.0 mg/kg/injection, schedule: Q01DX001 (ip), vehicle: saline) 95 % of control; (dose: 400.0 mg/kg/injection, schedule: Q01DX001 (ip), vehicle: saline) 95 % of control.

`CC(CCC(=O)O)(c1ccc(OC(=O)Nc2cccc([N+](=O)[O-])c2)cc1)c1ccc(OC(=O)Nc2cccc([N+](=O)[O-])c2)cc1`: the T/C was 98 % of control under setting [9] and 91 % of control under setting [10].

Turning to `O=C1c2ccccc2C(=O)c2c(-c3ccc(Cl)cc3)noc21`, the T/C runs as follows: under setting [11], 94 % of control; under setting [12], 93 % of control; under setting [13], 90 % of control.

Turning to `CC1=CCC2C([C@H]1OC(=O)c1ccc([N+](=O)[O-])cc1)C(C)(C)CCC[C@]2(C)O` (stereo partly drawn), the T/C runs as follows: (dose: 100.0 mg/kg/injection, schedule: Q04DX002 (ip), vehicle: Klucel (hydroxypropylcellulose) (HPC)) 98 % of control; (dose: 200.0 mg/kg/injection, schedule: Q04DX002 (ip), vehicle: Klucel (hydroxypropylcellulose) (HPC)) 89 % of control; (dose: 400.0 mg/kg/injection, schedule: Q04DX002 (ip), vehicle: Klucel (hydroxypropylcellulose) (HPC)) 90 % of control.

Take `CCCCCC(=O)c1c(O)cc2c(c1O)C(=O)c1c(O)cc(OC)cc1C2=O`: the T/C under setting [7] was 93 % of control and the T/C under setting [8] is 93 % of control.

`O=[N+]([O-])c1ccc(Sc2c3ccccc3nc3ccccc23)cn1`: the T/C by setting is: (dose: 25.0 mg/kg/injection, schedule: Q01DX005 (ip), vehicle: saline with Tween-80) 104 % of control; under setting [9], 109 % of control; under setting [10], 104 % of control; under setting [14], 101 % of control.

As for `COc1nc(COC(=O)NC(C)C)c(COC(=O)NC(C)C)n1C`, the T/C runs as follows: (dose: 12.5 mg/kg/injection, schedule: Q01DX005 (ip), vehicle: Klucel (hydroxypropylcellulose) (HPC)) 109 % of control; (dose: 25.0 mg/kg/injection, schedule: Q01DX005 (ip), vehicle: Klucel (hydroxypropylcellulose) (HPC)) 118 % of control; under setting [11], 123 % of control; under setting [12], 166 % of control; under setting [13], 189 % of control; (dose: 400.0 mg/kg/injection, schedule: Q01DX005 (ip), vehicle: Klucel (hydroxypropylcellulose) (HPC)) 196 % of control.

Turning to `O=C(Nc1ccccc1O)/C(Cl)=C/Cl`, the T/C by setting is: (dose: 33.0 mg/kg/injection, schedule: Q01DX009 (ip), vehicle: saline with Tween-80) 120 % of control; (dose: 75.0 mg/kg/injection, schedule: Q01DX009 (ip), vehicle: saline with Tween-80) 115 % of control; (dose: 100.0 mg/kg/injection, schedule: Q04DX003 (ip), vehicle: saline with Tween-80) 105 % of control; (dose: 200.0 mg/kg/injection, schedule: Q04DX003 (ip), vehicle: saline with Tween-80) 120 % of control.

Consider `Cc1ccc(N=NC2Sc3nc4ccccc4n3C2=O)cc1` (stereo not drawn), for which the T/C by setting is: (dose: 60.0 mg/kg/injection, schedule: Q01DX005 (ip), vehicle: Klucel (hydroxypropylcellulose) (HPC)) 101 % of control; (dose: 120.0 mg/kg/injection, schedule: Q01DX005 (ip), vehicle: Klucel (hydroxypropylcellulose) (HPC)) 97 % of control; (dose: 240.0 mg/kg/injection, schedule: Q01DX005 (ip), vehicle: Klucel (hydroxypropylcellulose) (HPC)) 88 % of control.

Take `C(=C\c1cc(-c2cc(/C=C/c3ccccc3)[nH]n2)n[nH]1)/c1ccccc1`: the T/C under setting [15] is 100 % of control and the T/C under setting [16] is 99 % of control.

For `O=S(=O)(NO)c1cccc(S(=O)(=O)NO)c1`, the T/C by setting is: (dose: 25.0 mg/kg/injection, schedule: Q04DX003 (ip), vehicle: saline) 110 % of control; (dose: 50.0 mg/kg/injection, schedule: Q04DX003 (ip), vehicle: saline) 115 % of control; under setting [17], 110 % of control.

As to `CCOc1c(N=Nc2ccccc2OC)c(-c2ccccc2)nn1C(N)=S`, the T/C reads like this: under setting [9], 88 % of control; under setting [10], 87 % of control; under setting [14], 98 % of control.

Turning to `O=C(O)CC1CC(O)CC/C1=N\Nc1ccc([N+](=O)[O-])cc1[N+](=O)[O-]` (stereo not drawn), the T/C is 102 % of control under setting [9], 98 % of control under setting [10] and 91 % of control under setting [14].

Regarding `CCCCC(=O)N1SC(NC(=O)OC)=Nc2ccccc21`, the T/C was 101 % of control under setting [11], 100 % of control under setting [12] and 109 % of control under setting [13].

Take `CCc1ccc(NS(=O)(=O)c2ccc(F)cc2)cc1`: the T/C was 104 % of control under setting [15]; 104 % of control under setting [16]; 96 % of control (dose: 240.0 mg/kg/injection, schedule: Q01DX005 (ip), vehicle: saline with Tween-80).

Take `COC(=O)C1(CC(=O)c2ccc(Cl)cc2Cl)NC(=S)NC(=O)C1C#N` (stereo not drawn): the T/C was 91 % of control under setting [15] and 92 % of control under setting [16].

Turning to `CNC(=O)CCl`, the T/C under setting [17] was 99 % of control and the T/C (dose: 200.0 mg/kg/injection, schedule: Q04DX003 (ip), vehicle: saline) is 99 % of control.

For `O=C(O)CCN1CCCc2ccccc21`, the T/C was 100 % of control (dose: 100.0 mg/kg/injection, schedule: Q04DX003 (ip), vehicle: other); 100 % of control (dose: 200.0 mg/kg/injection, schedule: Q04DX003 (ip), vehicle: other); 109 % of control (dose: 400.0 mg/kg/injection, schedule: Q04DX003 (ip), vehicle: other).

In the case of `COc1cc2ccc3cnccc3c2cc1OC`, the T/C reads like this: (dose: 12.5 mg/kg/injection, schedule: Q01DX009 (ip), vehicle: water) 99 % of control; (dose: 25.0 mg/kg/injection, schedule: Q01DX009 (ip), vehicle: water) 99 % of control; (dose: 50.0 mg/kg/injection, schedule: Q01DX009 (ip), vehicle: water) 103 % of control; (dose: 100.0 mg/kg/injection, schedule: Q01DX009 (ip), vehicle: water) 99 % of control; (dose: 200.0 mg/kg/injection, schedule: Q01DX009 (ip), vehicle: water) 113 % of control.

On to `COc1ccc(N2CC=C(c3ccccc3)OP2(=O)N2CC2)cc1` (stereo not drawn), for which the T/C by setting is: under setting [11], 106 % of control; under setting [12], 105 % of control; under setting [13], 95 % of control.
